Measurements as given in US20230265151A1, “GIP/GLP1 CO-AGONIST COMPOUNDS” (priority 2020, published 2023).
Read-outs that look alike come from different tables or passages of the source. *1 amine or outer side, *2 acyl side, *3 side chain or, on linkers, in order; H or OH if unused. Where a SMILES comes first, the peptide text is derived from it. Side-chain parts run from the residue outwards. [ ]: non-standard residue; d: D form. The star is where a group is joined. αMePhe(2-F) = C[C@](N)(Cc1ccccc1F)C(=O)O; γGlu = O=C(O)[C@H](CCC(=O)[*:2])N[*:1]; C14 diacid = O=C(O)CCCCCCCCCCCCC(=O)*; αMeY = C[C@](N)(Cc1ccc(O)cc1)C(=O)O; αMeL = CC(C)C[C@](C)(N)C(=O)O; Orn = NCCC[C@H](N)C(=O)O; AEEA = NCCOCCOCC(=O)O; Aib = CC(C)(N)C(=O)O

What was measured:
Format in all cases: cell-based
hGCGR = biological target: T1, hGCGR (Homo sapiens, UniProt P47871); assay: Functional cAMP formation (HTRF) in HEK-293 clonal cells expressing hGCGR, 0.1% bovine casein, without or with 1.0% human serum albumin; settings: geometric mean, read-out: hGCGR EC50, nM (SEM, n)
T1 construct: expressed in transfected cells
T1 sequence (P47871 26-477): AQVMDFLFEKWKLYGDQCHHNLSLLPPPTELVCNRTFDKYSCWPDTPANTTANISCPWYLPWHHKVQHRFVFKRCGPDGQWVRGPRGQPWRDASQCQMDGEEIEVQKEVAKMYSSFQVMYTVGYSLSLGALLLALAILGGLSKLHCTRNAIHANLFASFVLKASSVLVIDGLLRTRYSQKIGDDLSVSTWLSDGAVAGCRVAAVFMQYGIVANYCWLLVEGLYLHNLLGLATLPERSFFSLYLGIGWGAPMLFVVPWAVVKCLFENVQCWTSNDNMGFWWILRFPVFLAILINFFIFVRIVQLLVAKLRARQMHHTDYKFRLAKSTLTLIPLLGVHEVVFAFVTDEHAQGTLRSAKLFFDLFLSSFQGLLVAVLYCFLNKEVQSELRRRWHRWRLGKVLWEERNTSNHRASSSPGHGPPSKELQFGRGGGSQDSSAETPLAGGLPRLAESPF
How it was run: (§1)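 Readings of the HTRF 665/620 nm ratio, which falls as cAMP rises, were converted to nM cAMP using a standard curve after 30 min peptide exposure at 37° C.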

hGIPR = biological target: T2, hGIPR (Homo sapiens, UniProt P48546); assay: Functional cAMP formation (HTRF) in HEK-293 clonal cells expressing hGIPR, 0.1% bovine casein, without or with 1.0% human serum albumin; settings: for EC50: geometric mean, read-out: hGIPR EC50, nM (SEM, n); for Emax: read-out: hGIPR Emax, % ± SEM
T2 construct: expressed in transfected cells
T2 sequence (P48546 22-466): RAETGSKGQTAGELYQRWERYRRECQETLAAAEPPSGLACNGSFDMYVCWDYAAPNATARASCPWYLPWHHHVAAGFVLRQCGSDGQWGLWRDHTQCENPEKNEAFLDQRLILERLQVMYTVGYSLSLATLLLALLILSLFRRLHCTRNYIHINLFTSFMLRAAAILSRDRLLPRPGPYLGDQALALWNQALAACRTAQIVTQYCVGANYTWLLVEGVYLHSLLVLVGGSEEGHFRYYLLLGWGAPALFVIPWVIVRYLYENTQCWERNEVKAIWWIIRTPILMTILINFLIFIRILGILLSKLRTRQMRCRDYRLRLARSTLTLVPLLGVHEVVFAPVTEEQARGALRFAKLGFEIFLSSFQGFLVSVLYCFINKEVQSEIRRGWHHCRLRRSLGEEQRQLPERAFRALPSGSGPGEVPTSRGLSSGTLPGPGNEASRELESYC
How it was run: as §1

hGLP-1R = hGLP-1R (Homo sapiens, UniProt P43220); assay: Functional cAMP formation (HTRF) in HEK-293 clonal cells expressing hGLP-1R, 0.1% bovine casein, without or with 1.0% human serum albumin; parameters: expressed in transfected cells; settings: for EC50: geometric mean, read-out: hGLP-1R EC50, nM (SEM, n); for Emax: read-out: hGLP-1R Emax, % ± SEM
hGLP-1R, sequence (P43220 24-463): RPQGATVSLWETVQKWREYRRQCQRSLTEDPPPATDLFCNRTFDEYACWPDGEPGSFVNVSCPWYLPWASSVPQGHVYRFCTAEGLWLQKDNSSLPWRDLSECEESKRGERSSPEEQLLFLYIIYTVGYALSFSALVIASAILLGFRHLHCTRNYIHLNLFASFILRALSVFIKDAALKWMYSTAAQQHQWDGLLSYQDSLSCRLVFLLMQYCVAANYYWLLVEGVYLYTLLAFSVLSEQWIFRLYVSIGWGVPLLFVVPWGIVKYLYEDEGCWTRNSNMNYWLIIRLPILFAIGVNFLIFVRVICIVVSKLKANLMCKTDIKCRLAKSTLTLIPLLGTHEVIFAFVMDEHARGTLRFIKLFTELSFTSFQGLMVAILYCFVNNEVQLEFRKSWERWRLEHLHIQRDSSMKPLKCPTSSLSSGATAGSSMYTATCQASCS
How it was run: as §1

[1] = 0.1% bovine casein and 1.0% human serum albumin, 37° C.
[2] = cAMP, incubated at 37° C., 0.1% bovine casein (no human serum albumin)
[3] = HEK293, 0.1% bovine casein and 1.0% human serum albumin, 37° C., percent of maximal response to GIP(1-42)NH2
[4] = HEK293, percent of maximal response to GIP(1-42)NH2, 37° C., 0.1% bovine casein, arithmetic mean
[5] = HEK293, percent of maximal response to GLP-1(7-36)NH2, 37° C., 0.1% bovine casein, arithmetic mean

| Structure (SMILES) | EC50 (hGCGR; [1]) [nM] | EC50 (hGCGR; [2]) [nM] | EC50 (hGIPR; [1]) [nM] | Emax (hGIPR; [3]) [%] | Emax (hGIPR; [4]) [%] | EC50 (hGLP-1R; [1]) [nM] | Emax (hGLP-1R; HEK293, 0.1% bovine casein and 1.0% human serum albumin, 37° C., percent of maximal response to GLP-1(7-36)NH2) [%] | EC50 (hGLP-1R; [2]) [nM] | Emax (hGLP-1R; [5]) [%] | EC50 (hGIPR; [2]) [nM] |
| --- | --- | --- | --- | --- | --- | --- | --- | --- | --- | --- |
| CCCCCCCCCCCC(=O)N[C@@H](CCC(=O)NCCOCCOCC(=O)NCCOCCOCC(=O)NCCCC[C@H](NC(=O)CNC(=O)CNC(=O)[C@H](CCC(=O)O)NC(=O)[C@@H](NC(=O)[C@H](CC(C)C)NC(=O)[C@](C)(Cc1ccc(O)cc1)NC(=O)[C@@H](CCC(=O)O)NC(=O)[C@@H](NC(=O)[C@H](Cc1ccccc1)NC(=O)[C@H](CCC(=O)O)NC(=O)C(C)(C)NC(=O)[C@H](CCC(N)=O)NC(=O)[C@H](C)NC(=O)[C@H](CCCCNC(=O)COCCOCCNC(=O)COCCOCCNC(=O)CC[C@H](NC(=O)CCCCCCCCCCC)C(=O)O)NC(=O)[C@H](CCCN)NC(=O)[C@H](CC(=O)O)NC(=O)[C@H](CC(C)C)NC(=O)[C@](C)(CC(C)C)NC(=O)[C@@H](NC(=O)[C@H](CO)NC(=O)[C@H](Cc1ccncc1)NC(=O)[C@H](CC(=O)O)NC(=O)[C@H](CO)NC(=O)[C@@H](NC(=O)[C@](C)(Cc1ccccc1)NC(=O)[C@@H](NC(=O)CNC(=O)[C@H](CCC(=O)O)NC(=O)C(C)(C)NC(=O)[C@@H](N)Cc1ccc(O)cc1)[C@@H](C)O)[C@@H](C)O)[C@@H](C)CC)[C@@H](C)CC)[C@@H](C)CC)C(=O)N[C@@H](CO)C(=O)N[C@@H](CO)C(=O)NCC(=O)N[C@@H](C)C(=O)N1CCC[C@H]1C(=O)N1CCC[C@H]1C(=O)N1CCC[C@H]1C(=O)N[C@@H](CO)C(N)=O)C(=O)O [Example 172] | > 9950 | > 9950 | 0.385 | 80.1 ± 2.06 | 89.9 ± 1.05 | 7.7 | 112 ± 10.3 | 0.141 | – | – |
| CC[C@H](C)[C@H](NC(=O)[C@H](CC(C)C)NC(=O)[C@](C)(Cc1ccc(O)cc1)NC(=O)[C@@H](CCC(=O)O)NC(=O)[C@@H](NC(=O)[C@H](Cc1ccccc1)NC(=O)[C@H](CCC(=O)O)NC(=O)C(C)(C)NC(=O)[C@H](CCC(N)=O)NC(=O)[C@H](C)NC(=O)[C@H](CCCCNC(=O)COCCOCCNC(=O)COCCOCCNC(=O)CC[C@H](NC(=O)CCCCCCCCCCCCC(=O)O)C(=O)O)NC(=O)[C@H](CCCN)NC(=O)[C@H](CC(=O)O)NC(=O)[C@H](CC(C)C)NC(=O)[C@](C)(CC(C)C)NC(=O)[C@@H](NC(=O)[C@H](CN)NC(=O)[C@@H](NC(=O)[C@H](CC(=O)O)NC(=O)[C@H](CO)NC(=O)[C@@H](NC(=O)[C@](C)(Cc1ccccc1F)NC(=O)[C@@H](NC(=O)CNC(=O)[C@H](CCC(=O)O)NC(=O)C(C)(C)NC(=O)[C@@H](N)Cc1ccc(O)cc1)[C@@H](C)O)[C@@H](C)O)C(C)C)[C@@H](C)CC)[C@@H](C)CC)C(=O)N[C@@H](CCC(=O)O)C(=O)NCC(=O)NCC(=O)N[C@@H](CCCCNC(=O)COCCOCCNC(=O)COCCOCCNC(=O)CC[C@H](NC(=O)CCCCCCCCCCCCC(=O)O)C(=O)O)C(=O)N[C@@H](CO)C(=O)N[C@@H](CO)C(=O)NCC(=O)N[C@@H](C)C(=O)N1CCC[C@H]1C(=O)N1CCC[C@H]1C(=O)N1CCC[C@H]1C(=O)N[C@@H](CO)C(N)=O [Example 201] | > 9950 | > 9950 | – | 80.5 | 92.2 ± 3.26 | 25.1 | – | – | 105 ± 4.51 | – |
| CCCCCCCCCCCC(=O)N[C@@H](CCC(=O)NCCOCCOCC(=O)NCCOCCOCC(=O)NCCCC[C@H](NC(=O)CNC(=O)CNC(=O)[C@H](CCC(=O)O)NC(=O)[C@@H](NC(=O)[C@H](CC(C)C)NC(=O)[C@](C)(Cc1ccc(O)cc1)NC(=O)[C@@H](CCC(=O)O)NC(=O)[C@@H](NC(=O)[C@H](Cc1ccccc1)NC(=O)[C@H](CCC(=O)O)NC(=O)C(C)(C)NC(=O)[C@H](CCC(N)=O)NC(=O)[C@H](C)NC(=O)[C@H](CCCCNC(=O)COCCOCCNC(=O)COCCOCCNC(=O)CC[C@H](NC(=O)CCCCCCCCCCC)C(=O)O)NC(=O)[C@H](CCCN)NC(=O)[C@H](CC(=O)O)NC(=O)[C@H](CC(C)C)NC(=O)[C@](C)(CC(C)C)NC(=O)[C@@H](NC(=O)C(C)(C)NC(=O)[C@@H](NC(=O)[C@H](CC(=O)O)NC(=O)[C@H](CO)NC(=O)[C@@H](NC(=O)[C@](C)(Cc1ccccc1)NC(=O)[C@@H](NC(=O)CNC(=O)[C@H](CCC(=O)O)NC(=O)C(C)(C)NC(=O)[C@@H](N)Cc1ccc(O)cc1)[C@@H](C)O)[C@@H](C)O)C(C)C)[C@@H](C)CC)[C@@H](C)CC)[C@@H](C)CC)C(=O)N[C@@H](CO)C(=O)N[C@@H](CO)C(=O)NCC(=O)N[C@@H](C)C(=O)N1CCC[C@H]1C(=O)N1CCC[C@H]1C(=O)N1CCC[C@H]1C(=O)N[C@@H](CO)C(N)=O)C(=O)O [Example 176] | – | > 9950 | – | – | 89.3 | – | – | – | 98.9 | 0.0485 |
| CC[C@H](C)[C@H](NC(=O)[C@H](CCCN)NC(=O)[C@H](CC(=O)O)NC(=O)[C@H](CC(C)C)NC(=O)[C@](C)(CC(C)C)NC(=O)[C@@H](NC(=O)C(C)(C)NC(=O)[C@H](Cc1ccc(O)cc1)NC(=O)[C@H](CC(=O)O)NC(=O)[C@H](CO)NC(=O)[C@@H](NC(=O)[C@](C)(Cc1ccccc1F)NC(=O)[C@@H](NC(=O)CNC(=O)[C@H](CCC(=O)O)NC(=O)C(C)(C)NC(=O)[C@@H](N)Cc1ccc(O)cc1)[C@@H](C)O)[C@@H](C)O)[C@@H](C)CC)C(=O)N[C@@H](C)C(=O)N[C@@H](CCC(N)=O)C(=O)NC(C)(C)C(=O)N[C@@H](CCCCNC(=O)COCCOCCNC(=O)COCCOCCNC(=O)CC[C@H](NC(=O)CCCCCCCCCCCCC(=O)O)C(=O)O)C(=O)N[C@@H](Cc1ccccc1)C(=O)N[C@H](C(=O)N[C@H](CCC(=O)O)C(=O)N[C@@](C)(Cc1ccc(O)cc1)C(=O)N[C@@H](CC(C)C)C(=O)N[C@H](C(=O)N[C@@H](CCCCNC(=O)COCCOCCNC(=O)COCCOCCNC(=O)CC[C@H](NC(=O)CCCCCCCCCCCCC(=O)O)C(=O)O)C(=O)NCC(=O)NCC(=O)N1CCC[C@H]1C(=O)N[C@@H](CO)C(=O)N[C@@H](CO)C(=O)NCC(=O)N[C@@H](C)C(=O)N1CCC[C@H]1C(=O)N1CCC[C@H]1C(=O)N1CCC[C@H]1C(=O)N[C@@H](CO)C(N)=O)[C@@H](C)CC)[C@@H](C)CC [Example 234] (H-Y[Aib]EGT[αMePhe(2-F)]TSDY[Aib]I[αMeL]LD[Orn]IAQ[Aib]K([AEEA-AEEA-γGlu-C14 diacid])FI[dE][αMeY]LIK([AEEA-AEEA-γGlu-C14 diacid])GGPSSGAPPPS-NH2; N-terminus assumed) | > 9950 | > 9950 | – | 84.4 | – | – | – | 0.319 | 112 | 0.0182 |
